Measurements reported in the NIST ThermoML archive (doi:10.1021/je800783a).

Assay: xn = mol fraction of the nth substance listed
Conditions: 101 kPa, Liquid, Vibrating tube method

CCCn1cc[n+](C)c1.N[C@@H](CCC(=O)O)C(=O)[O-] + O
mass density [kg/m3]
Conditions | 313.15 K | 318.15 K | 323.15 K | 328.15 K | 333.15 K | 338.15 K
x1 = 0.039 | 1075.97 | 1073.22 | 1070.37 | 1067.43 | 1064.43 | 1061.36
x1 = 0.0455 | 1085.27 | 1082.41 | 1079.46 | 1076.44 | 1073.32 | 1070.11
x1 = 0.0497 | 1091.07 | 1088.19 | 1085.24 | 1082.22 | 1079.13 | 1075.98
x1 = 0.0683 | 1111.85 | 1108.8 | 1105.7 | 1102.55 | 1099.36 | 1096.1
x1 = 0.0783 | 1121.25 | 1118.14 | 1114.98 | 1111.78 | 1108.54 | 1105.26
x1 = 0.0894 | 1129.5 | 1126.34 | 1123.14 | 1119.9 | 1116.63 | 1113.31
x1 = 0.0975 | 1134.91 | 1131.71 | 1128.49 | 1125.24 | 1121.94 | 1118.6
x1 = 0.1235 | 1150.57 | 1147.32 | 1144.03 | 1140.73 | 1137.4 | 1134.05
x1 = 0.1451 | 1159.24 | 1155.99 | 1152.7 | 1149.4 | 1146.06 | 1142.71
x1 = 0.1925 | 1172.52 | 1169.27 | 1166 | 1162.68 | 1159.35 | 1155.98
x1 = 0.239 | 1181.78 | 1178.48 | 1175.27 | 1172 | 1168.59 | 1165.3
x1 = 0.2888 | 1188.1 | 1184.82 | 1181.51 | 1178.21 | 1174.99 | 1171.72
x1 = 0.3294 | 1192.09 | 1188.84 | 1185.58 | 1182.29 | 1178.98 | 1175.77
x1 = 0.3767 | 1195.42 | 1192.17 | 1188.94 | 1185.67 | 1182.34 | 1179.04
x1 = 0.4265 | 1199.74 | 1196.17 | 1192.88 | 1189.64 | 1186.35 | 1183.09
x1 = 0.4713 | 1200.57 | 1197.03 | 1193.63 | 1190.41 | 1187.18 | 1183.94
x1 = 0.5112 | 1201.78 | 1198.21 | 1194.79 | 1191.55 | 1188.22 | 1184.93
x1 = 0.5427 | 1203.93 | 1200.61 | 1197.22 | 1193.66 | 1190.35 | 1187.07
